The values that follow come from paper PMC6934184, “Selective DNA-PKcs inhibition extends the therapeutic index of localized radiotherapy and chemotherapy” (The Journal of Clinical Investigation, 2019).

In the experiment the target is T1, MELK (Homo sapiens, UniProt Q14680).
T1 construct: purchased Thermo Fisher Scientific (Life Technologies) SelectScreen
The experiment can be described thus: SelectScreen Z'LYTE. The class given is biochemical. Put shortly:
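Percent values come from Thermo SelectScreen profiling of NU5455, combining activity and binding assays. CSF1R was run in Z'LYTE format at Km app ATP, and CAMK1 in Adapta format with ATP listed at 10.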

T1 sequence (Q14680 whole entry): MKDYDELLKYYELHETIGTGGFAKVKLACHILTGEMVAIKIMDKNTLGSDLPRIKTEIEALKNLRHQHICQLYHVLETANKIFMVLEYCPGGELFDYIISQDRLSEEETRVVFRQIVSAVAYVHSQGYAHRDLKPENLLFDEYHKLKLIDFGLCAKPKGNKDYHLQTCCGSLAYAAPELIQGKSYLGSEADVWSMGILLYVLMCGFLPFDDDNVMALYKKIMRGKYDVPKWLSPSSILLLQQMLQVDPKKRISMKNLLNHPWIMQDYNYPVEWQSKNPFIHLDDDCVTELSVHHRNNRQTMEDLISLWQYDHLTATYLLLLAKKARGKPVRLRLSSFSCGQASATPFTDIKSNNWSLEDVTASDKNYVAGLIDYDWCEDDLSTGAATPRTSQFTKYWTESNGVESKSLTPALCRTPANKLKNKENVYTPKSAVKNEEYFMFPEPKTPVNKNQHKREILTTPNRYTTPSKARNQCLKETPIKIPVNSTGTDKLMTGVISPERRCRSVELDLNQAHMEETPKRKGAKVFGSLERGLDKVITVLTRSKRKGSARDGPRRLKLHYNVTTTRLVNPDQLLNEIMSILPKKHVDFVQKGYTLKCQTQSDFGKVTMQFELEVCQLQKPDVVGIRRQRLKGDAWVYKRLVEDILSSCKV

With `CN(C(=O)CN1CCOCC1)c1ccc2sc3c(-c4cccc5c(=O)cc(N6CC7CCC(C6)O7)oc45)cccc3c2c1` [NU5455], the inhibition (in general, the drop in the measured response relative to a control, in per cent) at 1 µM is -11.8%.
